According to patent US12186283B2, “Bismuth-thiol compositions and methods of use” (Microbion Corporation, priority 2018, dated 2025):
Read-outs that look alike come from different tables or passages of the source.

What was measured:
Format in all cases: cell-based
Candida auris = assay: Broth microdilution MIC, yeast (Example 13)
Candida glabrata = assay: Broth microdilution MIC, yeast (Example 13)
Candida albicans = assay: Broth microdilution MIC, yeast (Example 13); conditions: 24 hr
Candida krusei = assay: Broth microdilution MIC, yeast (Example 13)
Aspergillus spp. = assay: Broth microdilution MIC/MEC, mold (Example 13); conditions: for MIC0 (complete inhibition): comparators, read time not given
[1] = Candida glabrata ATCC 90030, Susceptible
[2] = Candida glabrata ATCC MYA-2950, Susceptible
[3] = Candida glabrata MMX 7087, Susceptible
[4] = Candida glabrata MMX 7111, Susceptible
[5] = Candida glabrata MMX 7549, Susceptible
[6] = Candida albicans ATCC 90028, Susceptible
[7] = Candida albicans MMX 7053, Susceptible
[8] = Candida albicans MMX 7403, Susceptible
[9] = Candida albicans MMX 7430, Susceptible
[10] = Candida albicans MMX 7437, FLU-I
[11] = C. krusei ATCC 14243, Susceptible
[12] = C. krusei ATCC 96685, Susceptible
[13] = C. krusei MMX 7125, Susceptible
[14] = C. krusei MMX 7128, Susceptible
[15] = C. krusei MMX 7141, Susceptible
[16] = C. krusei MMX 7155, Susceptible
[17] = C. krusei MMX 7563, Susceptible
[18] = C. krusei MMX 9878, MICA-I, VORI-I

C[C@@H](c1ncncc1F)[C@](O)(Cn1cncn1)c1ccc(F)cc1F [VORI]
0.5 µg/mL: MIC2 (50% inhibition) (Candida albicans; Candida albicans ATCC MYA-2732, FLU-R, VORI-I) | MIC2 (50% inhibition) (Candida krusei; [12]) | MIC0 (complete inhibition) (Aspergillus spp.; A. flavus MMX 7935) | MIC0 (complete inhibition) (Aspergillus spp.; A. fumigatus ATCC 204305) | MIC0 (complete inhibition) (Aspergillus spp.; A. fumigatus ATCC MYA-3626) | MIC0 (complete inhibition) (Aspergillus spp.; A. niger ATCC 29508)
2 µg/mL: MIC2 (50% inhibition) (Candida auris; C. auris MMX 9864, FLU-R, VORI-R) | MIC2 (50% inhibition) (Candida auris; C. auris MMX 9869, FLU-R, VORI-R) | MIC2 (50% inhibition) (Candida glabrata; Candida glabrata MMX 7093, FLU-R) | MIC2 (50% inhibition) (Candida glabrata; Candida glabrata MMX 7101, FLU-R) | MIC0 (complete inhibition) (Aspergillus spp.; A. flavus ATCC 204304) | MIC0 (complete inhibition) (Aspergillus spp.; A. fumigatus MMX 5939)
4 µg/mL: MIC2 (50% inhibition) (Candida auris; C. auris MMX 9870, FLU-R, VORI-R) | MIC2 (50% inhibition) (Candida glabrata; Candida glabrata MMX 7307, CASP-R, MICA-R, FLU-R)
>8 µg/mL: MIC2 (50% inhibition) (Candida auris; C. auris MMX 9863, FLU-R, VORI-R) | MIC2 (50% inhibition) (Candida auris; C. auris MMX 9868, FLU-R, VORI-R) | MIC2 (50% inhibition) (Candida albicans; Candida albicans MMX 7067, FLU-R, VORI-R) | MIC2 (50% inhibition) (Candida albicans; Candida albicans MMX 7445, FLU-R, VORI-R)
0.12 µg/mL: MIC2 (50% inhibition) (Candida glabrata; [1]) | MIC2 (50% inhibition) (Candida glabrata; [2]) | MIC2 (50% inhibition) (Candida glabrata; Candida glabrata MMX 7103, CASP-R, MICA-R) | MIC2 (50% inhibition) (Candida albicans; [10]) | MIC2 (50% inhibition) (Candida krusei; C. krusei ATCC 6258, MICA-I) | MIC2 (50% inhibition) (Candida krusei; [14]) | MIC2 (50% inhibition) (Candida krusei; [15])
0.25 µg/mL: MIC2 (50% inhibition) (Candida krusei; [13]) | MIC2 (50% inhibition) (Candida krusei; C. krusei MMX 7153, MICA-R) | MIC2 (50% inhibition) (Candida krusei; [16]) | MIC2 (50% inhibition) (Candida krusei; [17]) | MIC0 (complete inhibition) (Aspergillus spp.; A. fumigatus MMX 5934) | MIC0 (complete inhibition) (Aspergillus spp.; A. fumigatus MMX 5938) | MIC0 (complete inhibition) (Aspergillus spp.; A. terreus MMX 8229)
8 µg/mL: MIC2 (50% inhibition) (Candida auris; C. auris MMX 9865, FLU-R, VORI-R) | MIC2 (50% inhibition) (Candida auris; C. auris MMX 9866, FLU-R, VORI-R) | MIC2 (50% inhibition) (Candida auris; C. auris MMX 9867, FLU-R, VORI-R)
≤0.008 µg/mL: MIC2 (50% inhibition) (Candida albicans; [6]) | MIC2 (50% inhibition) (Candida albicans; Candida albicans ATCC 204276, MICA-R) | MIC2 (50% inhibition) (Candida albicans; [7]) | MIC2 (50% inhibition) (Candida albicans; [8]) | MIC2 (50% inhibition) (Candida albicans; Candida albicans MMX 7424, CASP-R, MICA-R) | MIC2 (50% inhibition) (Candida albicans; [9])
1 µg/mL: MIC2 (50% inhibition) (Candida auris; C. auris MMX 9871, Susceptible) | MIC2 (50% inhibition) (Candida glabrata; Candida glabrata MMX 7285, CASP-R, MICA-R) | MIC2 (50% inhibition) (Candida krusei; [18]) | MIC0 (complete inhibition) (Aspergillus spp.; A. flavus ATCC 22546)
0.06 µg/mL: MIC2 (50% inhibition) (Candida glabrata; [4]) | MIC2 (50% inhibition) (Candida glabrata; [5]) | MIC2 (50% inhibition) (Candida krusei; [11])
0.03 µg/mL: MIC2 (50% inhibition) (Candida auris; C. auris MMX 9862, Susceptible) | MIC2 (50% inhibition) (Candida glabrata; [3])

OC(Cn1cncn1)(Cn1cncn1)c1ccc(F)cc1F [FLU]
64 µg/mL: MIC2 (50% inhibition) (Candida krusei; [18])
8 µg/mL: MIC2 (50% inhibition) (Candida glabrata; [1]) | MIC2 (50% inhibition) (Candida glabrata; [2])
0.12 µg/mL: MIC2 (50% inhibition) (Candida albicans; [7])
2 µg/mL: MIC2 (50% inhibition) (Candida auris; C. auris MMX 9862, Susceptible) | MIC2 (50% inhibition) (Candida glabrata; [4])
4 µg/mL: MIC2 (50% inhibition) (Candida glabrata; [5]) | MIC2 (50% inhibition) (Candida albicans; [10])
>64 µg/mL: MIC2 (50% inhibition) (Candida auris) | MIC2 (50% inhibition) (Candida auris; C. auris MMX 9871, Susceptible) | MIC2 (Aspergillus spp.; A. flavus ATCC 22546) | MIC2 (Aspergillus spp.; A. flavus ATCC 204304) | MIC2 (Aspergillus spp.; A. flavus MMX 7935) | MIC2 (Aspergillus spp.; A. fumigatus ATCC 204305) | MIC2 (Aspergillus spp.; A. fumigatus ATCC MYA-3626) | MIC2 (Aspergillus spp.; A. fumigatus MMX 5934) | MIC2 (Aspergillus spp.; A. fumigatus MMX 5938) | MIC2 (Aspergillus spp.; A. fumigatus MMX 5939) | MIC2 (Aspergillus spp.; A. niger ATCC 29508) | MIC2 (Aspergillus spp.; A. terreus MMX 8229)
0.5 µg/mL: MIC2 (50% inhibition) (Candida albicans; [9])
16 µg/mL: MIC2 (50% inhibition) (Candida krusei; C. krusei ATCC 6258, MICA-I) | MIC2 (50% inhibition) (Candida krusei; [11]) | MIC2 (50% inhibition) (Candida krusei; [14]) | MIC2 (50% inhibition) (Candida krusei; [15])
0.25 µg/mL: MIC2 (50% inhibition) (Candida albicans; [6])
32 µg/mL: MIC2 (50% inhibition) (Candida krusei) | MIC2 (50% inhibition) (Candida krusei; [12]) | MIC2 (50% inhibition) (Candida krusei; [13]) | MIC2 (50% inhibition) (Candida krusei; [16]) | MIC2 (50% inhibition) (Candida krusei; [17])
1 µg/mL: MIC2 (50% inhibition) (Candida glabrata; [3]) | MIC2 (50% inhibition) (Candida albicans; [8])
